Data on 5 compounds can be found in patent publication US12414560B2, “Pesticidal compositions and related methods” (CJB Applied Technologies LLC, priority 2017, dated 2025).

Values joined by “and” are separate entries in the source; they are usually repeats but may differ in a detail not shown here. Identical values can stand only once.

Assay [1] relates to resistant strain of Didymella sp. (gummy stem rot). The assay can be described thus: Petri dish test (zone of inhibition), radial growth, resistant strain of Didymella sp. It is filed as cell-based. How it is done: (§1) Petri dish tests (i.e., zone of inhibition tests) were conducted to compare the efficacy of azoxystrobin against both sensitive/susceptible and resistant strains of Didymella sp. (gummy stem rot).
Petri dish tests (i.e., zone of inhibition tests) were conducted to compare four rates of three adjuvant compositions (ADJ1, AJD2, and ADJ3 (N-methylpyrrolidone)) on sensitive and resistant strains of Didymella at a fixed treatment rate with a FRAC Group 11 fungicide, azoxystrobin.
Petri dish tests (i.e., zone of inhibition tests) were conducted to compare the efficacy of azoxystrobin (a strobilurin, quinone outside inhibitor (QOI), and member of Fungicide Resistance Action Committee (FRAC) Group 11) against resistant strains of Didymella sp. (gummy stem rot). Various organic solvents (adjuvants) were utilized at varying rates (6 fluid ounces/acre or 3 ounces/acre).

Assay [2] deals with sensitive/susceptible strain of Didymella sp. (gummy stem rot). As to the kind of experiment: Petri dish test (zone of inhibition), radial growth, sensitive/susceptible strain of Didymella sp. It is filed as cell-based. To be noted: for radial growth, 18 hours / radial growth, 24 hours / radial growth, 36 hours / radial growth, 48 hours / radial growth, 12 hours: sensitive strain. How it is done:
as §1
Petri dish tests (i.e., zone of inhibition tests) were conducted to compare four rates of three adjuvant compositions (ADJ1, AJD2, and ADJ3 (N-methylpyrrolidone)) on sensitive and resistant strains of Didymella at a fixed treatment rate with a FRAC Group 11 fungicide, azoxystrobin. […]

The test system of assay [3] is natural strains of Didymella. As to the kind of experiment: Watermelon Didymella (Gummy Stem Rot) field test, natural infection, disease severity rating. The format is in vivo, Didymella on watermelon plants. How it is done:
Watermelon plants were grown in normal field conditions subject to infection by natural strains of Didymella. The watermelons where then treated with: (a) a FRAC Group 11 fungicide, azoxystrobin alone; (b) ADJ1 alone; (c) azoxystrobin plus ADJ2; (d) azoxystrobin plus a typical commercial adjuvant (commercially available as Ad-Spray™); and (e) azoxystrobin plus chlorothalonil and commercial adjuvant. Disease severity ratings were taken and illustrated improved disease control of natural strains with ADJ1 compared to treatment with azoxystrobin alone or azoxystrobin plus commercial adjuvant, and equivalent control to azoxystrobin plus chlorothalonil and commercial adjuvant.

In assay [4] the test system is Morning Glory (MG). The assay can be described thus: Herbicide burndown testing, Morning Glory. Note: test concentration or dose not given here. To be noted: in vivo. How it is done: (§2) Burndown (BD) testing was conducted on Morning Glory (MG), Goosegrass (GG), Florida Beggarweed (FB) with an herbicide, Gramoxone® (paraquat—N,N′-dimethyl-4,4′-bipyridinium dichloride). Various amounts of Crop Oil Concentrate™ (COC) and an organic solvent adjuvant, Benzyl Acetate (BA), were utilized in conjunction with the herbicide. Crop Oil Concentrate™ (COC) is commonly used to enhance the deposition and spreading of herbicides on the leaf surface. The Crop Oil Concentrate™ (COC) included paraffinic petroleum oil, tall oil fatty acids and alkylphenol ethoxylates. The results are summarized in Table 20 and show a substantial increase in burndown rate when the organic solvent adjuvant is combined with an herbicide. The results also show a substantial increase in burndown rate compared to the combination of herbicide and Crop Oil Concentrate™ (COC).

Assay [5] deals with Goosegrass (GG). The assay can be described thus: Herbicide burndown testing, Goosegrass. Note: test concentration or dose not given here. To be noted: in vivo. How it is done:
as §2

Assay [6] deals with resistant strains of Rhizoctonia solani (brown patch, stem rot, and/or root rot). The assay can be described thus: Petri dish test (zone of inhibition), resistant strains of Rhizoctonia solani. It is filed as cell-based. Conditions: organic solvent composition (where used) 6 fluid ounces/acre; for % Reduction in Radial Growth: 48 hours, vs untreated. How it is done: Petri dish tests (i.e., zone of inhibition tests) were conducted to compare the efficacy of tebuconazole (demethylation inhibitor, […], a triazole, and member of Fungicide Resistance Action Committee (FRAC) Group 3) against resistant strains of Rhizoctonia solani (brown patch, stem rot, and/or root rot). Various organic solvents (adjuvants) were utilized at 6 fluid ounces/acre and compared with just the active ingredient alone. The results are summarized in Table 19 and show the organic solvents provide a substantial resistant strain growth reduction compared to a FRAC Group 3 active ingredient utilized alone.

Assay [7] relates to azoxystrobin resistant strain of Didymella. The assay can be described thus: Watermelon Didamella (Gummy Stem Rot) field test, inoculated plants, disease severity rating. It is filed as in vivo, Didymella on watermelon plants. Also noted: key: based on counts of active fungal infection sites on leaves. To be noted: adjuvant rate 6 fl oz/acre. As for the experimental part: Watermelon plants were inoculated with an azoxystrobin resistant strain of Didymella. The watermelon plants were then treated with: (a) a FRAC Group 11 fungicide, azoxystrobin alone; (b) azoxystrobin plus ADJ1; (c) azoxystrobin plus ADJ2; (d) azoxystrobin plus a typical commercial adjuvant (commercially available as Ad-Spray™); and (e) azoxystrobin plus chlorothalonil and commercial adjuvant (commercially available as Ad-Spray™). Disease severity ratings were taken and illustrated improved disease control of resistant strain with ADJ1 and ADJ2 compared to treatment with azoxystrobin alone, azoxystrobin plus commercial adjuvant, and azoxystrobin plus chlorothalonil and commercial adjuvant, especially at lower rates of azoxystrobin. Severity rating were based on multiple counts of active fungal infection sites on the leaves of the plants.

Assay [8] deals with natural strains of Cercospora (known to be resistant to azoxystrobin). The assay can be described thus: Soybean Cercospora (Frog Eye Leaf Spot) field test, severity ratings. The format is in vivo, Cercospora on soybean plants. To be noted: azoxystrobin 0.5×. As for the experimental part:
Soybean plants were grown in normal field conditions subject to infection by natural strains of Cercospora (known to be resistant to azoxystrobin) then treated with: (a) a FRAC Group 11 fungicide, azoxystrobin alone; (b) azoxystrobin plus ADJ1; (c) azoxystrobin plus ADJ2; (d) azoxystrobin plus a typical commercial adjuvant (commercially available as Preference®). Disease severity ratings were taken and illustrated improved disease control with ADJ1 and ADJ2 compared to treatment with azoxystrobin alone or azoxystrobin plus commercial adjuvant. Duncan Multiple Range treatment of the data (indicated by “a,” “b,” “c,”, etc.) confirmed statistically valid different between the treatment results.

Where [9] appears, read: ADJ1 0.25× (adjuvant rate 4 fl oz/acre), Quadris 0.
The mark [10] stands for this setting: adjuvant 4 fl oz/acre (ADJ1 0.5×), Quadris 0.
[11] abbreviates: adjuvant 6 fl oz/acre ([…]), Quadris 0.
Where [12] appears, read: adjuvant 8 fl oz/acre (1×), Quadris 0.
[13] abbreviates: azoxystrobin 0, additive alone (additive rate 0).
The mark [14] stands for this setting: adjuvant 2 fl oz/acre (0.25×), Quadris 0.
[15] abbreviates: adjuvant 4 fl oz/acre (0.5×), Quadris 0.
The mark [16] stands for this setting: adjuvant 8 fl oz/acre (ADJ1 1×), Quadris 0.
Where [17] appears, read: azoxystrobin 0, adjuvant only 6 fl oz/acre.
Where [18] appears, read: azoxystrobin 5.5 fl oz/acre, no additive.
[19] abbreviates: azoxystrobin 11 fl oz/acre, no additive.
The mark [20] stands for this setting: azoxystrobin 16 fl oz/acre, no additive.
Where [21] appears, read: azoxystrobin 22 fl oz/acre, no additive.
[22] abbreviates: azoxystrobin application rate 5.5.
The mark [23] stands for this setting: azoxystrobin application rate 11.
The mark [24] stands for this setting: azoxystrobin application rate 22.
[25] abbreviates: azoxystrobin 5.5 fl oz/acre, adjuvant rate 6 fl oz/acre.
The mark [26] stands for this setting: azoxystrobin 11 fl oz/acre, adjuvant rate 6 fl oz/acre.

With `CC(=O)OCc1ccccc1` [ADJ1, benzyl acetate], the “radial growth, 18 hours” value in assay [1] (setting [9]) is 20.6 cm; in assay [1] (setting [10]), 22.6 cm; in assay [1] (setting [11]) it was 18.9 cm; in assay [1] (setting [12]), 16.7 cm; in assay [2] (setting [14]), 19.9 cm; in assay [2] (setting [15]), 17 cm. The “radial growth, 18 hours” value in assay [2] (setting [11]) and in assay [2] (setting [16]) was 15.7 cm throughout. The “radial growth, 24 hours” value in assay [1] (setting [9]) stood at 30.2 cm; in assay [1] (setting [10]), 28.5 cm; in assay [1] (setting [11]), 23.4 cm; in assay [1] (setting [12]) it was 10.9 cm; in assay [1] (setting [13]), 30 cm; in assay [2] (setting [14]), 24.9 cm. For the same compound, the “radial growth, 24 hours” value in assay [2] (setting [15]) turned out to be 23.7 cm; in assay [2] (setting [11]), 26.1 cm; in assay [2] (setting [16]), 21.3 cm; in assay [2] (setting [13]), 41.1 cm. The “radial growth, 48 hours” value in assay [1] (setting [9]) stood at 51.2 cm; in assay [1] (setting [10]), 53.9 cm; in assay [1] (setting [11]), 45.9 cm; in assay [1] (setting [12]), 44.4 cm; in assay [2] (setting [14]) it was 47.9 cm; in assay [2] (setting [15]) it was 46 cm. Also, the entries for the “radial growth, 48 hours” value in assay [2] (setting [11]) and in assay [2] (setting [16]) were 48.1 cm and 50.1 cm, respectively. The “radial growth, 12 hours” value was found to be 25 cm in assay [1] (setting [13]) and 24 cm in assay [2] (setting [13]). Further, the “growth reduction, in words” value in assay [1] (text of Example 2) is given as “some efficacy but not at a commercial level control”. The “radial growth, 36 hours” value in assay [2] (setting [14]) is 39.3 cm; in assay [2] (setting [15]), 32.3 cm; in assay [2] (setting [11]), 38.8 cm; in assay [2] (setting [16]), 40.6 cm; in assay [2] (setting [13]) it was 54 cm. In assay [2] (susceptible strain, equivalent of 2 oz/acre of ADJ1), the “control compared to azoxystrobin alone, in words” value is given as “comparable control”. Moreover, the “disease reduction, in words” value in assay [3] (ADJ1 only) was “Some disease reduction”. Besides, in assay [3] (setting [17]), the “disease severity, Fourth Week Rating” value was determined as 48.7. Further, the “disease severity, One Week Rating” value in assay [3] (setting [17]) turned out to be 1.1. Further, in assay [3] (setting [17]), the “disease severity, Third Week Rating” value came out at 38.9. For the same compound, the “disease severity, Two Week Rating” value in assay [3] (setting [17]) stood at 8.

With `CN1CCCC1=O` [ADJ3, N-methylpyrrolidone], in assay [1] (setting [13]), the “radial growth, 12 hours” value is 27 cm and the “radial growth, 24 hours” value is 39 cm. In assay [2] (setting [13]), the “radial growth, 12 hours” value was 22.8 cm; the “radial growth, 24 hours” value was 41 cm; the “radial growth, 36 hours” value is recorded as 54.1 cm.

For `C[n+]1ccc(-c2cc[n+](C)cc2)cc1` [Paraquat], the “BD (MG) (%)” value in assay [4] was 51% and 50% and 81%. In addition, in assay [5], the “BD (GG) (%)” value is 72% and 60% and 100%.

Take `CC(C)(C)C(O)(CCc1ccc(Cl)cc1)Cn1cncn1` (stereo not shown) [Tebuconazole]: in assay [6] (Tebuconazole 2 oz/acre), the “Radial growth (cm) at 48 hours” value was found to be 10.72 cm and the “% Reduction in Radial Growth” value is recorded as 32%. Besides, in assay [6] (Tebuconazole 4 oz/acre), the “Radial growth (cm) at 48 hours” value is 7.8 cm and the “% Reduction in Radial Growth” value is reported as 50%.

As to `CO/C=C(/C(=O)OC)c1ccccc1Oc1cc(Oc2ccccc2C#N)ncn1` [azoxystrobin], the “radial growth, 12 hours” value in assay [1] (setting [18]) was 31 cm; in assay [1] (setting [19]), 30 cm; in assay [1] (setting [20]), 29 cm; in assay [1] (setting [21]), 22 cm; in assay [2] (setting [18]), 15.3 cm; in assay [2] (setting [19]) it was 12.5 cm. Moreover, the “radial growth, 12 hours” value in assay [2] (setting [20]) amounted to 13.4 cm; in assay [2] (setting [21]) it was 15.8 cm. Moreover, the “radial growth, 24 hours” value in assay [1] (setting [18]) turned out to be 48 cm; in assay [1] (setting [19]), 48 cm; in assay [1] (setting [20]), 47 cm; in assay [1] (setting [21]), 28 cm; in assay [2] (setting [18]) it was 24.9 cm; in assay [2] (setting [19]) it was 16.9 cm. The “radial growth, 24 hours” value in assay [2] (setting [20]) is on record as 20 cm; in assay [2] (setting [21]) it was 22.9 cm. The “radial growth, 36 hours” value worked out at 34.3 cm in assay [2] (setting [18]), 23.6 cm in assay [2] (setting [19]), 28 cm in assay [2] (setting [20]) and 31.9 cm in assay [2] (setting [21]). The “disease severity, Fourth Week Rating” value in assay [7] (setting [22]) worked out at 82.8; in assay [7] (setting [23]), 65.7; in assay [7] (setting [24]), 16.3; in assay [3] (setting [25]), 80.8; in assay [3] (setting [26]), 76.8. The “disease severity, One Week Rating” value in assay [7] (setting [22]) amounted to 9.2; in assay [7] (setting [23]) it was 13.3; in assay [7] (setting [24]) it was 1.1; in assay [3] (setting [25]), 2.1; in assay [3] (setting [26]), 1.1. Besides, the “disease severity, Third Week Rating” value in assay [7] (setting [22]) stood at 63.3; in assay [7] (setting [23]), 42; in assay [7] (setting [24]) it was 4.8; in assay [3] (setting [25]) it was 59.4; in assay [3] (setting [26]), 49.5. Further, the “disease severity, Two Week Rating” value in assay [7] (setting [22]) was determined as 16.9; in assay [7] (setting [23]) it was 16.7; in assay [7] (setting [24]), 0.2; in assay [3] (setting [25]) it was 6.6; in assay [3] (setting [26]), 0. The “Severity Ratings, August 31/Upper leaf” value in assay [8] stood at 10.3. In addition, the “Severity Ratings, September 7/bottom leaf” value in assay [8] was determined as 35.5. In assay [8], the “Severity Ratings, September 7/higher Leaf” value amounted to 16.3. Moreover, the “Severity Ratings, September 7/middle leaf” value in assay [8] came out at 3.2. For the same compound, in assay [8], the “Severity Ratings, September 13/bottom leaf” value is on record as 18. For the same compound, the “Severity Ratings, September 20/higher leaf” value in assay [8] is reported as 11.3.
